Assay results from US8748485B2, “Compound and medical use thereof” (Ono Pharmaceuticals Co., Ltd., priority 2010, dated 2014).

Experiments:
[1] = in vivo; cited from earlier work
[2] = Kinetic study in dogs (oral administration, plasma levodopa)
Text: The relationship between the blood concentration of levodopa and side effects in patients who take levodopa has been gradually elucidated. […] In order to reduce the number of doses of levodopa and avoid side effects such as dyskinesia and wearing-off in patients who take levodopa, it is necessary to maintain the blood concentration of levodopa within a therapeutic range as long as possible.
These levodopa prodrugs are prodrugs containing an ester bond, and therefore, it is considered that among a number of enzymes, carboxyesterase plays the most important role in the process of producing levodopa by metabolizing the compound after the compound is administered in vivo. Therefore, as an animal species to be used for performing a kinetic study, dogs in which the organ distribution of carboxyesterase is most similar to that of humans were selected as subjects for evaluation.
The thus obtained drug solution was administered by gavage through a gastric tube into the stomach of dogs (male beagle dogs) which were fasted from the day before the administration. At 15 and 30 minutes, and 1, 2, 4, 6, and 8 hours after administration of the drug solution, 1 mL of blood was collected from a cephalic vein with a heparinized syringe. Immediately after the collection, the collected blood was centrifuged in a desktop centrifuge at 14500 rpm for 45 seconds. Then, acetonitrile containing 0.1125% formic acid was added to the thus obtained plasma in an amount as twice as large as the volume of the plasma, followed by stirring, and then, the resulting sample was stored at −20° C. until measurement.
The sample was thawed on the measurement day, followed by stirring and centrifugation at 13000 rpm for 3 minutes (at 4° C.). The resulting supernatant was filtered and the filtrate was analyzed by LC/MS/MS. The analysis was performed by LC/MS/MS under the following conditions.
Measurement Apparatus: API-5000 (manufactured by Applied Biosystems, Inc.)
Analytical column: CAPCELL PAK CR (1:4) (4.6 mm, I.D.×250 mm, 5 μm)
Analytical column temperature: 40° C.
Mobile phase: A: 5 mM ammonium formate (pH 3.9), B: acetonitrile (A/B=17/3)
Detection (levodopa): m/z (precursor): 196.19, m/z (product): 134.99
DP (Declustering Potential): −60
CE (Collision Energy): −25
CXP (Collision Cell Exit Potential): −17
Incidentally, the numerical value in the column which indicates the dose expressed in terms of levodopa refers to a dose equivalent to that of levodopa.

[3] = tested on: rat model injected with 6-hydroxydopamine into the medial forebrain bundle; assay: Rotation test in model injected with 6-hydroxydopamine into medial forebrain bundle; assay type: in vivo, rats (male Crl:CD(SD)IGS); conditions: 6-OHDA rats
Text: In the experiment, male Crl:CD(SD)IGS rats (Charles River Japan, Inc.) supplied at 5 weeks of age were used. The rats were housed in Econ cages (4 or less rats per cage) and were raised by giving free access to solid feed CRF-1 (Oriental Yeast Co., Ltd.) and tap water (in a water bottle) until they were subjected to the experiment. When acclimation after shipping was completed, each of the Crl:CD(SD)IGS rats at 6 weeks of age was anesthetized with pentobarbital sodium (Somnopentyl (registered trademark) injectable solution, 35 mg/kg, intraperitoneal injection). Subsequently, for the purpose of preventing damage to norepinephrine neurons by 6-hydroxydopamine (6-OHDA), desipramine (25 mg/kg) was intraperitoneally injected, and the rat was held and fixed by a brain fixation device. A small bone window was opened with a hand drill at a desired site, and 6-OHDA was injected into the medial forebrain bundle according to the brain atlas of Paxinos and Watson using a 30 G cannula (Brain Science Idea. Co. Ltd.) with a needle tip cut at an angle of 45° (site of injection: A=−4.5 mm, L=+1.2 mm, and V=−7.8 mm with respect to the bregma, injection amount: 8 μg/4 μL/8 min/site in each case). […] Thereafter, the burr hole was closed with an instant glue, and then sutured and disinfected with iodine tincture. […] In a rotation test, a device configured such that a black plastic circular cylinder having a diameter of 30 cm and a height of 35 cm was placed upright in a black-painted bowl having an opening diameter of 35 cm and a bottom diameter of 17 cm was used (the height of the curve from the bottom of the bowl to the bottom edge of the cylinder was set to 7 cm). The rat was placed in the device (one rat per device) and acclimated to the device for 30 minutes. Thereafter, a test substance was administered to the rat, and the rat was returned to the same device and videotaped. […] As for the number of rotations, a 360° rotation in one direction was determined to be one rotation. In the case where the direction (body's direction of movement or movement direction) was changed during rotation, the rotation was not included in the count. […] Incidentally, in each case, benserazide which is a dopa decarboxylase inhibitor (8 mg/kg) was orally administered concomitantly. […] In addition, the respective values are each a mean of the values obtained using 11 rats in each group and its standard error.

p53R2 = assay: Mutagenicity assay using mammalian cells (NESMAGET method); assay type: cell-based; conditions: for Mutagenicity assay (NESMAGET) Concentration at which mutagenicity was determined to be positive: concentration at which relative luciferase activity of p53R2 exceeded 200% (vehicle control 0.3% dimethylsulfoxide = 100%); for determination of mutagenicity: positive = relative luciferase activity of p53R2 exceeded 200%, compound of the present invention up to 200 μg/mL
Protocol: In the treatment of Parkinson's disease and/or Parkinson's syndrome, there is a possibility that a levodopa prodrug is continued to be taken over a long period of time of several years to several decades. Therefore, an evaluation was carried out as to whether or not the compound of the present invention has mutagenicity by a mutagenicity assay using mammalian cells.
A mutagenicity assay using mammalian cells was carried out as a commissioning test to be undertaken by Nissin Foods Holdings Co., Ltd. The present method also called NESMAGET method is a method in which the expression of p53R2 which is a DNA repair gene is detected by luciferase activity, and the specific experimental technique is described in JP-A-2005-000024 and Japanese Patent No. 4243716. In the determination as to whether or not the result of this test was positive, the luciferase activity of p53R2 in the case of a vehicle control (0.3% dimethylsulfoxide) was taken as 100%, and a concentration at which a relative luciferase activity exceeded 200% was determined to be “concentration at which mutagenicity was determined to be positive”.

[4] = Kinetic study in dogs (effect of salt or crystal form on blood kinetics); assay type: in vivo; conditions: 6 mg/3 mL/kg expressed in terms of levodopa
Protocol: (2) Kinetic Study in Dogs (Effect of Salt or Crystal Form on Blood Kinetics)
In general, it is considered that when the salt or crystal form is different, a difference in solubility thereof or the like affects blood kinetics and sometimes causes a difference in potency of efficacy.
The collection of a plasma sample was carried out according to the previous section (1). However, the dose was set to 6 mg/3 mL/kg.
The preparation of an analytical sample and analysis were carried out according to the previous section (1).
In the above Table 6, a change over time in the concentration (μg/mL) of levodopa observed in the plasma when the compound of the present invention produced in Example 6, the compound of the present invention produced in Example 9, or the compound of the present invention produced in Example 10 was orally administered to dogs is shown. The numeral expressed with ± in the parenthesis represents a standard deviation.

[5] = male, beagle, dog, in vivo, po, 3 mg/kg

Compound | Cmax/C6 hr (ratio of maximum plasma concentration and plasma concentration at 6 hours after oral administration, levodopa) [2, 5] | AUC (area under the blood concentration-time curve of levodopa) ([2]; dog, in vivo, po, 3 mg/kg) [μg^+ hr/mL] | Mutagenicity assay (NESMAGET) Concentration at which mutagenicity was determined to be positive (p53R2) [µg/mL] | determination of mutagenicity (p53R2) | Absorption through oral administration [4] | other results
N[C@@H](Cc1ccc(O)c(O)c1)C(=O)O [Levodopa, L-3,4-dihydroxyphenylalanine] | 913.8 | – | – | – | – | percentage of the absorbed levodopa distributed in the central nervous system [1]: less than 1%; share of the absorbed levodopa metabolized by aromatic L-amino acid decarboxylase (AADC) in organs other than the central nervous system [1]: ≥ 95%; AUC (area under the blood concentration-time curve of levodopa) ([2]; levodopa in plasma, fasted male beagle dogs, oral gavage, dose 3 mg/kg expressed in terms of levodopa): 0.96 μg^+ hr/mL; AUC ([2]; male, beagle, dog, plasma, po, 3 mg/kg): 960 ng·h/mL; time after administration at which the number of rotations reached a maximum value ([3]; oral, levodopa 30 mg/kg or Example 5 100 mg/kg expressed in terms of levodopa, benserazide 8 mg/kg): 20 min; maximum value of the number of rotations per 10 minutes ([3]; oral, levodopa 30 mg/kg or Example 5 100 mg/kg expressed in terms of levodopa, benserazide 8 mg/kg concomitantly, N=11): about 100 times
COc1ccccc1C(=O)OCC(C)(C)C(=O)Oc1ccc(C[C@H](N)C(=O)O)cc1OC(=O)C(C)(C)COC(=O)c1ccccc1OC.Cl [Reference Example 16] | 7.4 | 0.22 | 84 | positive for mutagenicity | – | –
CC(C)(COC(=O)c1ccccc1)C(=O)Oc1ccc(C[C@H](N)C(=O)O)cc1OC(=O)C(C)(C)COC(=O)c1ccccc1.Cl [Reference Example 40, (S)-2-Amino-3-(3,4-bis((3-(benzoyloxy)-2,2-dimethylpropanoyl)oxy)phenyl)propanoic acid hydrochloride] | 4.3 | 0.81 | 16 | positive for mutagenicity | – | –
CC(C)(COC(=O)c1ccsc1)C(=O)Oc1ccc(C[C@H](N)C(=O)O)cc1OC(=O)C(C)(C)COC(=O)c1ccsc1.Cl [Reference Example 11, (2S)-2-Amino-3-(3,4-bis((2,2-dimethyl-3-((thiophene-3-carbonyl)oxy)propanoyl)oxy)phenyl)propanoic acid hydrochloride] | 23.9 | 0.52 | 1.4 | positive for mutagenicity | – | –
CC(C)(OC(=O)c1ccccc1)C(=O)Oc1ccc(C[C@H](N)C(=O)O)cc1OC(=O)C(C)(C)OC(=O)c1ccccc1 [Example 10, (2S)-2-amino-3-(3,4-bis((2-(benzoyloxy)-2-methylpropanoyl)oxy)phenyl)propanoic acid] | – | – | – | – | can be absorbed through oral administration | –
CC(C)(OC(=O)c1ccccc1)C(=O)Oc1ccc(C[C@H](N)C(=O)O)cc1OC(=O)C(C)(C)OC(=O)c1ccccc1.Cc1ccc(S(=O)(=O)O)cc1 [Example 6, (2S)-2-amino-3-(3,4-bis((2-(benzoyloxy)-2-methylpropanoyl)oxy)phenyl)propanoic acid tosylate] | – | – | – | – | can be absorbed through oral administration | –
CC(C)(COC(=O)c1cccs1)C(=O)Oc1ccc(C[C@H](N)C(=O)O)cc1OC(=O)C(C)(C)COC(=O)c1cccs1.Cl [Reference Example 6, (2S)-2-Amino-3-(3,4-bis((2,2-dimethyl-3-((thiophene-2-carbonyl)oxy)propanoyl)oxy)phenyl)propanoic acid hydrochloride] | 14.7 | 0.66 | 2.4 | positive for mutagenicity | – | –
CC(C)(OC(=O)c1ccccc1)C(=O)Oc1ccc(C[C@H](N)C(=O)O)cc1OC(=O)C(C)(C)OC(=O)c1ccccc1 [Example 9, (2S)-2-amino-3-(3,4-bis((2-(benzoyloxy)-2-methylpropanoyl)oxy)phenyl)propanoic acid] | – | – | – | – | can be absorbed through oral administration | rotational behavior compared with the compound produced in Example 5 ([3]; used in place of Example 5): the same results were obtained
